Our source for the Km values is PMC11434850, “Biosynthesis of Piceatannol from Resveratrol in Grapevine Can Be Mediated by Cresolase-Dependent Ortho-Hydroxylation Activity of Polyphenol Oxidase” (Plants, 2024).

Structures are written as SMILES.

The assay has as its system T1, polyphenol oxidase (PPO), cresolase activity; most likely isoform XP_010647098.3.
T1 construct: pooled fractions A7 and A8; immunoreactive bands 40, 52 and faint 70 kDa; proteolytic processing possible
Briefly: Michaelis-Menten / double reciprocal plot; piceatannol formation by LC-MS MRM. The settings on record: o-hydroxylation (cresolase) to piceatannol; O2, 1 mM ascorbate, 0.1 M potassium phosphate pH 7.5, room temperature, 90 min, 5 to 200 µM substrate; partially purified, mixture of A7 and A8 fractions. The format is biochemical, Vitis vinifera.

Take `Oc1ccc(/C=C/c2cc(O)cc(O)c2)cc1` [trans-resveratrol, 3,4′,5-trihydroxy-trans-stilbene]: the Km was found to be 118 ± 49.8 µM.
